Laboratory results from patent publication US10166241B2, “Combination Therapy III” (TURUN YLIOPISTO, priority 2012, dated 2019).

What was measured:
[1] = test system: T98G glioblastoma cells; experiment: Apoptosis assay by sub-G0/G1 fraction estimation (apoptotic nuclear fragmentation); assay type: cell-based, human; conditions: T98G cells transfected with PME-1 specific dsRNA (so in the source)
Method: Apoptosis Assay by Sub-G0/G1 Fraction Estimation: […] After 24 hrs of treatment, both floating and adherent cells were harvested by centrifugation. […] The flow cytometric analysis of PI stained nuclei was performed and the recorded data was analyzed using a FACScan flow cytometer and software (Becton Dickinson) respectively. […] The treatments were given 48 hrs after transfection. Following 24 hrs of drug treatment the cells were lysed in hypotonic buffer, and their nuclei were stained with propidium iodide. The stained cell lysates were analysed to estimate the sub-G0/G1 fraction of fragmented nuclei by flow cytometry (FACS) (FIG. 1B).

[2] = test system: U87MG-luciferase glioblastoma cells; experiment: Colony formation assay in U87MG-luciferase cells; assay type: cell-based; conditions: HDAC4 siRNA 48 hrs, then drug 48 hrs (combination)
Excerpt: (§1) Cells plated in very low density (4-6×10^3) in 6-well plates were allowed to grow for about 7 days until they form small colonies. These cells were then transfected with Scrambled or HDAC4 siRNA using Lipofectamine RNAiMAX reagent (Invitrogen) according to the manufacturer's instructions. After 48 hrs, treatments were given with indicated concentration of chemical drugs for another 48 hrs. Cell colonies were washed with PBS, fixed with 3.7% formaldehyde and stained with 0.2% crystal violet solution (made in 10% ethanol) for 15 minutes at room temperature each. Excess stain was removed by repeated washings with PBS. Plates were dried and pictures were taken with Epson perfection V700 scanner and analysed with ImageJ.
(§2) The efficacy of the selected potent drugs was then tested by colony formation assay in […] T98G, and highly-tumorigenic U87MG-luciferase (luciferase expressing U87MG cells) glioblastoma cell lines. For this experiment, the cells were grown in 6-well plates in low density until the formation of small colonies which were then transfected with Scrambled or HDAC4 specific siRNA for 48 hrs followed by treatment with STS, PKC412, K252a, UCN-01 and CEP-701 at the indicated concentrations for another 48 hrs.

[3] = test system: T98G glioblastoma cells; experiment: Colony formation assay in T98G cells; assay type: cell-based, human
Excerpt: as §1, §2

[4] = HDAC4.2 siRNA transfected cells treated with drug

| Compound | Potentiation % (Scale) ([1]; drug 5 μM) | Potentiation % (amount of apoptotic nuclear fragmentation) ([1]; drug 5 μM) | other results |
| --- | --- | --- | --- |
| Cn1c2ccccc2c2c3c(c4c5ccccc5n(CCC#N)c4c21)CNC3=O [GÖ-6976, 12-(2-Cyanoethyl)-6,7,12,13-tetrahydro-13-methyl-5-oxo-5H-indolo[2,3-a]pyrrolo[3,4-c]carbazole] | − ((−) 0-20%) | 10-20% | – |
| COC1C(CO)OC(n2c3c(Cl)cccc3c3c4c(c5c6cccc(Cl)c6[nH]c5c32)C(=O)NC4=O)C(O)C1O (stereo not drawn) [Rebeccamycin, 5h-indolo(2,3-a)pyrrolo(3,4-c)carbazole-5,7(6h)-dione,1,11-dichloro-12,13-dihy;dro-12-(4-o-methyl-beta-d-glucopyra-nosyl)] | − ((−) 0-20%) | 5-10% | – |
| CN[C@@H]1C[C@H]2O[C@@](C)([C@@H]1OC)n1c3ccccc3c3c4c(c5c6ccccc6n2c5c31)C(=O)N[C@H]4O [UCN-01, (9S)-2,3,10,11,12,13-Hexahydro-3α-hydroxy-10α-methoxy-9-methyl-11α-methyl amino-9β,13β-epoxy-1H,9H-diindolo [1,2,3-gh:3′,2′,1′-lm] pyrrolo [3,4-j][1,7] benzo diazonin-1-one] | – | – | Potentiation % (Scale) ([1]; drug 1.5 μM): + ((+) 20-40%); Potentiation % (amount of apoptotic nuclear fragmentation) ([1]; drug 1.5 μM): 20-30%; Potentiation % (Scale) ([1]; drug 2.5 μM): +++ ((+++) 60-80%); Potentiation % (amount of apoptotic nuclear fragmentation) ([1]; drug 2.5 μM): 70-80% |
| COC(=O)[C@@]1(O)C[C@H]2O[C@]1(C)n1c3ccccc3c3c4c(c5c6ccccc6n2c5c31)C(=O)NC4 [K252a, (9S,10R,12R)-2,3,9,10,11,12-Hexahydro-10-hydroxy-9-methyl-1-oxo-9,12-epoxy-1H-diindolo [1,2,3-fg:3′,2′,1′-kl] pyrrolo[3,4-i][1,6] benzodi-azocine-10-carboxylic acid methyl ester] | ++++ ((++++) 80-100%) | 80-90% | colony growth [2]: very potent in reducing the colony growth; colony growth ([3]; HDAC4 siRNA 48 hrs, then drug 48 hrs (combination)): very potent in reducing the colony growth; colony growth [3, 4]: reduction in the colony growth; Potentiation % (Scale) ([1]; drug 3.5 μM): ++ ((++) 40-60%); Potentiation % (amount of apoptotic nuclear fragmentation) ([1]; drug 3.5 μM): 50-60% |
| O=C1NC(=O)c2c1c1c3ccccc3n3c1c1c2c2ccccc2n1C1CCC3O1 [SB-218078, 9,10,11,12-Tetrahydro-9,12-epoxy-1H-diindolo [1,2.3-fg:3′,2′,1′-kl] pyrrolo [3,4-i][1,6] benzodi-azocine-1,3(2H)-dione] | + ((+) 20-40%) | 20-30% | – |
| Cn1cc(C2=C(c3cn(C4CCN(Cc5ccccn5)CC4)c4ccccc34)C(=O)NC2=O)c2ccccc21 [Enzastaurin, 3-(1-Methyl-1H-indol-3-yl)-4-(1-(1-(2-pyridinylme-thyl)-4-piperidinyl)-1H-indol-3-yl)-1H-pyrrole-2,5-dione] | − ((−) 0-20%) | 10-20% | – |
| CO[C@@H]1[C@H](N(C)C(=O)c2ccccc2)C[C@H]2O[C@@H]1n1c3ccccc3c3c4c(c5c6ccccc6n2c5c31)C(=O)NC4 [PKC412, [9S-(9α,10β,11β, 13α)]-N-(2,3,10, 11,12,13-Hexahydro-10-methoxy-9-methyl-1-oxo-9,13-epoxy-1 H,9H-diindolo [1,2,3-gh:3′,2′,1′-lm]pyrrolo [3,4-j][1,7]benzodiazonin-11-yl)-N-methyl ben-zamide] | ++ ((++) 40-60%) | 50-60% | colony growth [3, 4]: reduction in the colony growth |
| O=C1NC(=O)c2c1c1c3ccccc3[nH]c1c1[nH]c3ccccc3c21 [Arcyriaflavin A, 12,13-Dihydro-5H-indolo [2,3-a] pyrrolo[3,4-c] carbazole-5,7(6H)-dione] | − ((−) 0-20%) | 5-10% | – |
| O=C1NCc2c1c1c3ccccc3[nH]c1c1[nH]c3ccccc3c21 [K252c, 6,7,12,13-Tetrahydro-5H-indolo[2,3-a]pyrrolo[3,4-c] carbazol-5-one] | − ((−) 0-20%) | 10-20% | – |
| CN[C@@H]1C[C@H]2O[C@@](C)([C@@H]1OC)n1c3ccccc3c3c4c(c5c6ccccc6n2c5c31)C(=O)NC4 [Staurosporine, [9S-(9α,10β,11β, 13α)]-2,3,10,11, 12,13-Hexa-hydro-10-methoxy-9-methyl-11-(methylamino)-9,13-epoxy-1H,9H-diindolo [1,2,3-gh:3′,2′,1′-lm] pyrrolo [3,4-j][1,7] benzo diazonin-1-one] | – | – | colony growth [3, 4]: reduction in the colony growth; Potentiation % (Scale) ([1]; drug 50 nM): + ((+) 20-40%); Potentiation % (amount of apoptotic nuclear fragmentation) ([1]; drug 50 nM): 30-40% |
| C[C@]12O[C@H](C[C@]1(O)CO)n1c3ccccc3c3c4c(c5c6ccccc6n2c5c31)CNC4=O [CEP-701, (9S,10S,12R)-2,3,9,10,11,12-Hexahydro-10-hydroxy-10-(hydroxyme-thyl)-9-methyl-9,12-epoxy-1H-diindolo [1,2,3-fg:3′,2′,1′-kl] pyrrolo[3,4-i][1, 6] benzo di-azocin-1-one] | +++ ((+++) 60-80%) | 70-80% | colony growth [2]: less effective; Potentiation % (Scale) ([1]; drug 3.5 μM): ++ ((++) 40-60%); Potentiation % (amount of apoptotic nuclear fragmentation) ([1]; drug 3.5 μM): 40-50% |
